Source: patent US4062958A, “Method of treating anxiety and compositions therefor” (American Cyanamid Company, priority 1976, dated 1977)

Legend:
[1] = system: clonic seizures caused by pentylenetetrazole; assay: Protection against clonic seizures caused by pentylenetetrazole in rats; type: in vivo; conditions: Rattus norvegicus, oral, 2% starch vehicle, groups of at least 5, pentylenetetrazole 21 to 23 mg./kg. i.v. at estimated time of peak effect, read-out: Medium Effective Oral Dose ED50, protection against clonic seizures caused by pentylenetetrazole
Method: The anti-anxiety properties of the active compound of the present invention has been established in a test which indicates anxiolytic activity by the measure of protection from convulsions resulting from the administration of pentylenetetrazole. Graded dose levels of the compound of this invention were administered orally, in a 2% starch vehicle, to groups of at least 5 rats. At the estimated time of peak effect, the rats were treated intravenously with pentylenetetrazole at a dose of 21 to 23 mg./kg. of body weight. This dose is estimated to cause clonic seizures in 99% of unprotected rats. The effective dose (ED50) of the test compound for protection of 50% of the animals is calculated by the method of D. H. Finney in "Statistical Methods in Biological Assay", Second Edition, Hafner Publishing Co., New York, 1964, pp. 456-457. Representative results are given in the table which follows in comparison with chlordiazepoxide and meprobamate, which were tested in exactly the same manner. It has been reported [R. T. Hill and D. H. Tedeschi, "Animal Testing and Screening Procedures in Evaluating Psychotropic Drugs" in An Introduction of Psychopharmacology, Eds. R. R. Rech and K. E. Moore, Raven Press, New York, pp. 237-288 (1971)] that there is a high degree of correlation between antagonism of pentylenetetrazole seizures in rats and anti-anxiety effects in higher warm-blooded animals.

[2] = system: conflict situation induced in rats (number of shocks received); assay: Non-conditioned passive avoidance (conflict) procedure in rats; type: in vivo; conditions: Sprague-Dawley rats, positive = 9 or more shocks in 4 to 5 minutes; for ED50: Rattus norvegicus, oral, comparison drugs tested in exactly the same manner, read-out: median effective dose (ED50)
Method: Another test which has been used to assess anti-anxiety effects is a non-conditioned passive avoidance procedure described by J. R. Vogel, B. Beer and D. E. Clody, "A Simple and Reliable Conflict Procedure for Testing Anti-Anxiety Agents", Psychopharmacologia, Vol. 21, pp. 1-7 (1971). A conflict situation is induced in rats by a modification of this method. To groups of six naive Sprague-Dawley rats (200-220 grams), previously deprived of water for forty-eight hours and food for 24 hours, are administered graded oral doses of test compound suspended in 2% starch vehicle also containing 2 drops of polyethylene glycol and polysorbate 80, or vehicle alone (controls). At the time of peak effect each rat is placed in a plexiglass box fitted with a drinkometer circuit connected between the stainless steel grid floor and a stainless steel drinking tube inserted in a hole in one of the walls of the box. A stimulator supplying monophasic 60 cycle square wave pulses of 0.2 milliamperes peak intensity, a timer which allows alternate 5 second " shock free" and 5 second "shock available" periods during a 5 minute test period, an electromagnetic counter to count the number of shocks received by the rat during the shock available period and a delay of one half second between the successive shocks are incorporated into the drinkometer circuit. After the rat is placed in the box, it is allowed to explore and drink 10% dextrose solution supplied through the tap. After twenty seconds of continuous unpunished drinking, the timer and drinkometer circuits are activated and 5 second shock free and 5 second shock available periods alternate. The number of shocks received by the rat during a 5 minute test period is recorded. The percentage of rats that receive 9 or more shocks in 4 to 5 minutes at each dose level is used as positive response in calculation of the median effective dose (ED50). The estimated (ED50) for the compound 3-methyl-6-phenyl-1,2,4-triazolo[4,3-b]pyridazine after one hour from oral administration is 100 mg./kg.

| SMILES | ED50 [1] | ED50 [2] | estimated median effective dose (ED50) ([2]; one hour after oral administration) |
| --- | --- | --- | --- |
| CNC1=Nc2ccc(Cl)cc2C(c2ccccc2)=[N+]([O-])C1 [Chlordiazepoxide] | 2.5 mg/kg | 9.6 mg/kg | – |
| Cc1nnc2ccc(-c3ccccc3)nn12 [3-methyl-6-phenyl-1,2,4-triazolo[4,3-b]pyridazine] | 3 mg/kg | – | 100 mg/kg |
| CCCC(C)(COC(N)=O)COC(N)=O [Meprobamate] | 22 mg/kg | 51.9 mg/kg | – |
